{"source": "patent US20230324382A1", "about": "“ANTIPHOSPHOLIPID ANTIBODIES FOR THE DIAGNOSIS OF LYME DISEASE” (Trustees of Tufts College, priority 2022, published 2023)", "key": {"B. burgdorferi": {"system": "B. burgdorferi", "assay": "Retention of NBD-PC in the membrane after transfer to rich medium", "assay_type": "cell-based, Borrelia burgdorferi", "description": "FIG. 12 is a graph illustrating that phospholipids are retained in the membrane in the absence of an environmental source. B. burgdorferi was labelled with NBD-PC in lipid-depleted dBSK medium for four hours, washed, and resuspended in rich medium. […] Points are the mean of three biological replicates, with error bars the standard deviation.\nThis is indicative of nonspecific uptake and is consistent with a model of random diffusion into the membrane. Fluorescence was detectable for up to 4 days after the initial labeling, with a half-life of approximately 1 day (FIG. 12)."}, "E. coli": {"system": "E. coli", "assay": "Incorporation of NBD-PC, other species", "assay_type": "cell-based, Escherichia coli MG1655", "settings": "25 μM NBD-PC, 4 hours", "procedure": "(§1) Cells were grown to a stationary phase (5 days) in BSK and then pelleted (5 minutes at 3220 g), washed once in an equal volume of PBS, and resuspended in an equal volume of dBSK. The cell suspension (1 mL) was added to nitrobenzoxadiazole-labeled (NBD-labeled) phospholipids (Avanti) to 25 μM. At hourly intervals, the cells were pelleted (5 minutes at 18,800 g), washed 3 times in 1 mL PBS, and resuspended in 100 μL PBS. The suspensions were transferred onto clear-bottomed, opaque 96-well plates (Corning), and fluorescence was recorded at excitation 460 nm/emission 540 nm (Ex460/Em540). Staphylococcus aureus 502a and Escherichia coli MG1655 were grown overnight in tryptic soy broth (TSB): tryptone (17.0 g/L), soytone (3.0), glucose (2.5), sodium chloride (5.0), and dipotassium phosphate (2.5). Incorporation of NBD-phospholipids was carried out in TSB, with subsequent washing and measurement as above.\n(§2) After fluorescence measurements, 5 μL cell suspensions were spotted onto glass slides and fixed with 5 μL ProLong Gold (Thermo Fisher Scientific) with DAPI. […] For all 3 bacterial species imaged, the laser power was calibrated such that minimal autofluorescence was detected in unlabeled cells prior to imaging of the labeled cells."}, "S. aureus": {"system": "S. aureus", "assay": "Incorporation of NBD-PC, other species", "assay_type": "cell-based, Staphylococcus aureus 502a", "settings": "25 μM NBD-PC, 4 hours", "procedure": "as §1, §2"}}}
{"substance": "NBD-PC", "values": [{"measurement": "fluorescence intensity as % of D0", "setting": "B. burgdorferi; day 1", "result": 56, "unit": "%"}, {"measurement": "fluorescence intensity as % of D0", "setting": "B. burgdorferi; day 4", "result": "~7", "unit": "%"}, {"measurement": "entry of fluorescent phospholipid into membranes", "setting": "E. coli", "result": "did not enter the membranes"}, {"measurement": "entry of fluorescent phospholipid into membranes", "setting": "S. aureus", "result": "did not enter the membranes"}]}
